# Data published in PubChem BioAssay AID1996.
# Conditions: buffer; pH 7.4; 200.0 µM
row,SMILES,solubility kinetic
1,CCc1cc(C(=O)Nc2ncccc2O)sc1C,> 39.3 µg/mL
2,O=[N+]([O-])c1ccc(Oc2ccc(Oc3ccc(C(F)(F)F)cn3)cc2)nc1,0.3 µg/mL
3,C/C(=C\c1ccc2c(c1)OCO2)C(=O)c1c(C)cc(C)[nH]c1=O,> 46.7 µg/mL
4,CCn1cc(C2=NC(CCSC)CO2)c2ccccc21 (centres undefined),34 µg/mL
5,CCN(C(=O)COC(=O)c1nccnc1N)c1cccc2ccccc12,> 52.6 µg/mL
6,CC(C)(C)NC(=O)c1ccccc1NC(=O)c1ccc2c(c1)OCO2,5.3 µg/mL
7,O=C(/C=C/c1cccc([N+](=O)[O-])c1)OCC(=O)c1ccccc1,< 0.7 µg/mL
8,CC(=O)Oc1ccccc1-n1c(C)nc(=O)c(-c2ccccc2)c1C,48.9 µg/mL
9,C=C(C)CN1CCN(c2ccc(N3C(=O)CCCC3=O)cc2[N+](=O)[O-])CC1,54 µg/mL
10,CC(=O)c1cc(C#N)c(N2CCN(c3ccccc3)CC2)nc1C,0.2 µg/mL
11,CCN1/C(=C\C(=S)Nc2ccccc2)Sc2ccccc21,20.7 µg/mL
12,Cc1cc2cc(CNC(=O)Cc3ccc([N+](=O)[O-])cc3)ccc2n1C,0.3 µg/mL
13,Cc1cc(NS(=O)(=O)c2ccc(NC(=O)CNS(=O)(=O)c3ccccc3)cc2)nc(C)n1,67.3 µg/mL
14,O=[N+]([O-])c1cccc(CN2CC=C(c3ccc(F)cc3)CC2)c1,3.3 µg/mL
15,CCNC(=O)NNC(=O)C1CC(c2cccnc2)=NO1 (centres undefined),> 41.6 µg/mL
16,Cc1ccc(C)c(NC(=O)C2CCCC2)c1,> 32.6 µg/mL
17,COCC(=O)OCC(=O)Nc1ccccc1-c1ccccc1,> 44.9 µg/mL
18,CCN(C(=O)Cn1c(=O)oc2ccccc21)c1cccc(C)c1,> 46.6 µg/mL
19,Cc1ccc(S(=O)(=O)NCC(=O)OCC(=O)Nc2cccc(S(=O)(=O)N3CCOCC3)c2)cc1,> 76.7 µg/mL
20,CC1(C)CC(NCc2ccccc2)CCO1.Cl (centres undefined),34.2 µg/mL

row,SMILES,solubility kinetic
1,Cc1ccsc1C(=O)NCCc1ccco1,33.5 µg/mL
2,Cc1cccc(C(=O)NCC(c2ccco2)N2CCc3ccccc32)c1 (centres undefined),8.2 µg/mL
3,O=C(C[n+]1ccncc1)c1ccccc1.[Br-],6.4 µg/mL
4,COCCCNS(=O)(=O)c1ccc2[nH]c(=O)[nH]c2c1,> 42.8 µg/mL
5,O=C(Nc1ccc(Cl)c(Cl)c1)N1CCCCCC1,0.9 µg/mL
6,O=C(Nc1ccc2c(c1)OCO2)C1CC1,> 30.8 µg/mL
7,N#Cc1cccc(NC(=O)CSc2n[nH]c(=O)[nH]c2=O)c1,> 45.5 µg/mL
8,O=C(Nc1ccc2ncccc2c1)c1ccccc1Br,3.3 µg/mL
9,C=CCC1Cc2c(cccc2[N+](=O)[O-])C(CC=C)N1 (centres undefined),30.5 µg/mL
10,COc1ccc(NC(=O)c2cc([N+](=O)[O-])ccc2N2CCCCC2)cc1OC,14 µg/mL
11,CC(=NCCN(C)C)c1c(O)n(Cc2ccccc2)c(=O)[nH]c1=O,> 49.6 µg/mL
12,CN(C)C(=O)c1coc2nc3ccccc3nc12,4 µg/mL
13,On1c(-c2ccc(Cl)cc2Cl)nc2ncccc21,> 42 µg/mL
14,COc1ccc(NC(=O)C2CC2)cc1OC1CCCC1,16 µg/mL
15,CSc1ncccc1C(=O)Nc1cc(Cl)ccc1N1CCOCC1,4.4 µg/mL
16,CNc1ccc(C(=O)c2ccccc2C(=O)O)cc1[N+](=O)[O-],> 45 µg/mL
17,CC(C)CN1C(=O)c2ccc(NC(=O)C3CC3)cc2C1=O,0.5 µg/mL
18,CSc1cccc(NS(=O)(=O)c2ccc(C(C)=O)cc2)c1,41.1 µg/mL
19,COC(=O)COc1cccc(NC(=O)c2cc(OC)cc(OC)c2)c1,49.6 µg/mL
20,O=C(NCCC1=CCCCC1)C(=O)NCCc1ccc(Cl)cc1,< 0.4 µg/mL

row,SMILES,solubility kinetic
1,Cc1noc(C)c1S(=O)(=O)Nc1cccc(C(F)(F)F)c1,> 48 µg/mL
2,O=C(OCCCN1CCOCC1)c1ccc(O)c(O)c1,> 42.2 µg/mL
3,Cc1ccc(/C(O)=C2\C(=O)C(=O)N(CC(C)O)C2c2ccccn2)cc1 (centres undefined),> 52.9 µg/mL
4,Cc1cccc(C)c1NC(=O)c1cccnc1,33.1 µg/mL
5,Cc1ccc(C)c(NC(=S)N2CCCCC2CO)c1 (centres undefined),> 41.8 µg/mL
6,CSC(=NCc1ccco1)NC#N,27.8 µg/mL
7,COc1cc(CNc2ccc3[nH]c(=O)[nH]c3c2)ccc1OCC(=O)NC(C)(C)C,52.3 µg/mL
8,CCCOc1ccc(N2CC(C(=O)NC3=NCCS3)CC2=O)cc1 (centres undefined),43.8 µg/mL
9,Cc1cccc(NC(=O)NCc2ccc3c(c2)OCO3)c1,1.6 µg/mL
10,Cl.O=C(NCCN1CCCC1)c1ccc(Cl)cc1Cl,> 48.5 µg/mL
11,Cc1nn(C(=O)N(C)C)c(C)c1CN1C(=O)c2ccccc2C1=O,> 49 µg/mL
12,COc1ccc(/C=C2/C(=O)ON=C2C)cc1Cl,23.6 µg/mL
13,Cc1ccc(C(=O)NCCCNC(=O)c2cccnc2)cc1,> 44.6 µg/mL
14,ClCC1NCC(c2ccccc2Cl)c2c1[nH]c1ccccc21 (centres undefined),19.3 µg/mL
15,O=C(O)CN1CCN(C(c2ccccc2)c2ccccc2)CC1,> 46.6 µg/mL
16,Cc1cc(NC(=O)Cc2ccsc2)ccc1Br,4.5 µg/mL
17,COC(=O)C(Cc1ccc(O)cc1)NC(=O)CCc1ccco1 (centres undefined),46.5 µg/mL
18,O=C(Nc1ccc(S(=O)(=O)Nc2ccccc2)cc1)C1CC1,12.6 µg/mL
19,O=C(COC(=O)COc1ccccc1F)Nc1cccc(S(=O)(=O)N2CCCCC2)c1,47.8 µg/mL
